The values below come from patent publication US10280166B2, “2-(1H-indazol-3-yl)-3H-imidazo[4,5-B]pyridine and therapeutic uses thereof” (Samumed, LLC, priority 2014, dated 2019).

For experiment [1], the system named is Wnt activity (SW480 colon carcinoma cells stably expressing the Sp5-Luc reporter gene). Nature of the experiment: Sp5-Luc reporter gene screening assay for Wnt activity in SW480 cells. It is filed as cell-based. The conditions noted are these: Homo sapiens, 42 h incubation, luminescence. In a few lines: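 SW480 cells stably carrying an Sp5 promoter (eight TCF/LEF sites)-luciferase reporter were plated overnight in 10% FCS medium. BrightGlo luminescence was normalised to DMSO wells, and IC50 was obtained by four-parameter fit.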
For orientation: In a reporter assay the amount or activity of a reporter protein is the signal.

Experiment [2] deals with primary human fibroblasts derived from IPF patients (LL29 cells). Description: Inhibition of fibrosis (αSMA) in TGF-β1 treated primary human fibroblasts from IPF patients. It is filed as cell-based. Conditions: Fibroblast, 96 h, TGF-β1 20 ng/mL, 4 days, % αSMA positive cells. In a few lines:
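IPF patient-derived LL29 lung fibroblasts in 1% FBS were treated with compound (11 points, 10 μM to 1.87 nM, 0.1% DMSO) and then 20 ng/mL TGF-β1 for 4 days at 37° C. Fraction of SYTOX-negative cells positive for αSMA was quantified by immunofluorescence imaging and normalized to TGF-β1 controls. EC50 came from non-linear regression over triplicate wells.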

`O=C(Nc1cncc(-c2ccc3[nH]nc(-c4nc5c(-c6ccoc6)ccnc5[nH]4)c3c2)c1)C1CCC1` [Compound 306, N-(5-(3-(7-(Furan-3-yl)-3H-imidazo[4,5-b]pyridin-2-yl)-1H-indazol-5-yl)pyridin-3-yl)cyclobutanecarboxamide]: the midpoint of inhibition in experiment [1], the IC50, lay at 6.7 nM. The EC50 – broadly, the concentration giving half of the maximal effect – in experiment [2] is 0.527 nM.
As for `c1cc(-c2ccoc2)c2nc(-c3n[nH]c4ccc(-c5cncc(CNCC6CCCC6)c5)cc34)[nH]c2n1` [Compound 310, 1-Cyclopentyl-N-((5-(3-(7-(furan-3-yl)-3H-imidazo[4,5-b]pyridin-2-yl)-1H-indazol-5-yl)pyridin-3-yl)methyl)methanamine], the concentration for half-maximal inhibition (IC50) (usually the concentration needed to halve the response being measured) in experiment [1] is 1270 nM. This compound also gave a concentration giving a half-maximal response (EC50) in experiment [2] of 9.99 nM.
Take `CCC(=O)Nc1cncc(-c2ccc3[nH]nc(-c4nc5c(-c6cccs6)ccnc5[nH]4)c3c2)c1` [Compound 313, N-(5-(3-(7-(Thiophen-2-yl)-3H-imidazo[4,5-b]pyridin-2-yl)-1H-indazol-5-yl)pyridin-3-yl)propionamide]: it took 2 nM to reach half-maximal inhibition in experiment [1] (IC50). The concentration giving a half-maximal response (EC50) in experiment [2] is 0.027 nM.
With `CC(C)(C)C(=O)Nc1cncc(-c2ccc3[nH]nc(-c4nc5c(-c6cccs6)ccnc5[nH]4)c3c2)c1` [Compound 320, N-(5-(3-(7-(Thiophen-2-yl)-3H-imidazo[4,5-b]pyridin-2-yl)-1H-indazol-5-yl)pyridin-3-yl)pivalamide], inhibition in experiment [1] was half-maximal at 8.8 nM (IC50). Further, the midpoint of the response in experiment [2], the EC50, lay at 0.016 nM.
Compound `CN(C)Cc1cncc(-c2ccc3[nH]nc(-c4nc5c(-c6cccs6)ccnc5[nH]4)c3c2)c1` [Compound 325, N,N-Dimethyl-1-(5-(3-(7-(thiophen-2-yl)-3H-imidazo[4,5-b]pyridin-2-yl)-1H-indazol-5-yl)pyridin-3-yl)methanamine] displayed a concentration for half-maximal inhibition (IC50) in experiment [1] of 932 nM. The compound also had an EC50 in experiment [2] of 0.04 nM.
In experiment [1], `O=C(Nc1cncc(-c2ccc3[nH]nc(-c4nc5c(-c6cccs6)ccnc5[nH]4)c3c2)c1)C1CC1` [Compound 331, N-(5-(3-(7-(Thiophen-2-yl)-3H-imidazo[4,5-b]pyridin-2-yl)-1H-indazol-5-yl)pyridin-3-yl)cyclopropanecarboxamide] displayed an IC50 of 34.7 nM. Moreover, in experiment [2], a half-maximal response (EC50) required 0.155 nM.
The compound `O=C(Nc1cncc(-c2ccc3[nH]nc(-c4nc5c(-c6cccs6)ccnc5[nH]4)c3c2)c1)C1CCCC1` [Compound 333, N-(5-(3-(7-(Thiophen-2-yl)-3H-imidazo[4,5-b]pyridin-2-yl)-1H-indazol-5-yl)pyridin-3-yl)cyclopentanecarboxamide] returned an IC50 in experiment [1] of 6.3 nM. The compound also came in with an EC50 in experiment [2] of 0.009 nM.
The compound `FC1(F)CCN(Cc2cncc(-c3ccc4[nH]nc(-c5nc6c(-c7cccs7)ccnc6[nH]5)c4c3)c2)C1` [Compound 337, 2-(5-(5-((3,3-Difluoropyrrolidin-1-yl)methyl)pyridin-3-yl)-1H-indazol-3-yl)-7-(thiophen-2-yl)-3H-imidazo[4,5-b]pyridine] yielded a half-maximal inhibitory concentration (IC50) in experiment [1] of 15 nM. In addition, the EC50 in experiment [2] is 1.31 nM.
`Fc1ccc(-c2ccnc3[nH]c(-c4n[nH]c5ccc(-c6cncc(CN7CCCC7)c6)cc45)nc23)s1` [Compound 352, 7-(5-Fluorothiophen-2-yl)-2-(5-(5-(pyrrolidin-1-ylmethyl)pyridin-3-yl)-1H-indazol-3-yl)-3H-imidazo[4,5-b]pyridine] returned an IC50 in experiment [1] of 13.2 nM. This compound also returned an EC50 in experiment [2] of 0.125 nM.
`Cc1ccc(-c2ccnc3[nH]c(-c4n[nH]c5ccc(-c6cncc(N)c6)cc45)nc23)s1` [Compound 367, 5-(3-(7-(5-Methylthiophen-2-yl)-3H-imidazo[4,5-b]pyridin-2-yl)-1H-indazol-5-yl)pyridin-3-amine] gave an IC50 in experiment [1] of 4.3 nM. In addition, the EC50 in experiment [2] was determined as 0.314 nM.
On to `Cc1ccc(-c2ccnc3[nH]c(-c4n[nH]c5ccc(-c6cncc(NC(=O)C(C)(C)C)c6)cc45)nc23)s1` [Compound 372, N-(5-(3-(7-(5-Methylthiophen-2-yl)-3H-imidazo[4,5-b]pyridin-2-yl)-1H-indazol-5-yl)pyridin-3-yl)pivalamide], for which 0.6 nM corresponded to half-maximal inhibition in experiment [1] (IC50). In addition, a half-maximal effect in experiment [2] (EC50) was put at 0.009 nM.
For `Cc1ccc(-c2ccnc3[nH]c(-c4n[nH]c5ccc(-c6cncc(CN7CCCCC7)c6)cc45)nc23)s1` [Compound 379, 7-(5-Methylthiophen-2-yl)-2-(5-(5-(piperidin-1-ylmethyl)pyridin-3-yl)-1H-indazol-3-yl)-3H-imidazo[4,5-b]pyridine], in that order: 76 nM and 0.405 nM.
`Cc1ccc(-c2ccnc3[nH]c(-c4n[nH]c5ccc(-c6cncc(NC(=O)C7CCCC7)c6)cc45)nc23)s1` [Compound 385, N-(5-(3-(7-(5-Methylthiophen-2-yl)-3H-imidazo[4,5-b]pyridin-2-yl)-1H-indazol-5-yl)pyridin-3-yl)cyclopentanecarboxamide] had a 50% inhibitory concentration (IC50) in experiment [1] of 19.2 nM. In experiment [2], the EC50 turned out to be 0.084 nM.
Take `Cc1ccncc1-c1ccc2[nH]nc(-c3nc4c(-c5cc(F)cc(CNS(C)(=O)=O)c5)ccnc4[nH]3)c2c1` [Compound 421, N-(3-fluoro-5-(2-(5-(4-Methylpyridin-3-yl)-1H-indazol-3-yl)-3H-imidazo[4,5-b]pyridin-7-yl)benzyl)methanesulfonamide]: the IC50 in experiment [1] came out at 6.1 nM. The compound further showed an EC50 in experiment [2] of 0.045 nM.
Take `CS(=O)(=O)NCc1cc(F)cc(-c2ccnc3[nH]c(-c4n[nH]c5ccc(-c6cncc(CNCc7ccccc7)c6)cc45)nc23)c1` [Compound 439, N-(3-(2-(5-(5-((Benzylamino)methyl)pyridin-3-yl)-1H-indazol-3-yl)-3H-imidazo[4,5-b]pyridin-7-yl)-5-fluorobenzyl)methanesulfonamide]: half-maximal inhibition in experiment [1] (IC50) required 354 nM. The compound also showed a concentration for a half-maximal effect (EC50) in experiment [2] of 0.009 nM.
For `CCNCc1cncc(-c2ccc3[nH]nc(-c4nc5c(-c6cc(F)cc(NCCN(C)C)c6)ccnc5[nH]4)c3c2)c1` [Compound 448, N^1-(3-(2-(5-(5-((Ethylamino)methyl)pyridin-3-yl)-1H-indazol-3-yl)-3H-imidazo[4,5-b]pyridin-7-yl)-5-fluorophenyl)-N^2,N^2-dimethylethane-1,2-diamine], in that order: 203 nM and 0.701 nM.
As for `CC(C)Nc1cncc(-c2ccc3[nH]nc(-c4nc5c(-c6cc(F)cc(NCCN(C)C)c6)ccnc5[nH]4)c3c2)c1` [Compound 454, N^1-(3-Fluoro-5-(2-(5-(5-(isopropylamino)pyridin-3-yl)-1H-indazol-3-yl)-3H-imidazo[4,5-b]pyridin-7-yl)phenyl)-N^2,N^2-dimethylethane-1,2-diamine], in experiment [1], the 50% inhibitory concentration (IC50) is 51.7 nM. This compound also returned an EC50 in experiment [2] of 0.019 nM.
Regarding `CN(C)CCNc1cc(F)cc(-c2ccnc3[nH]c(-c4n[nH]c5ccc(-c6cncc(CNCC7CCCC7)c6)cc45)nc23)c1` [Compound 466, N^1-(3-(2-(5-(5-(((Cyclopentylmethyl)amino)methyl)pyridin-3-yl)-1H-indazol-3-yl)-3H-imidazo[4,5-b]pyridin-7-yl)-5-fluorophenyl)-N^2,N^2-dimethylethane-1,2-diamine], the half-inhibitory concentration (IC50) in experiment [1] came out at 442 nM. In experiment [2], this compound registered a 50% effective concentration (EC50) of 1.11 nM.
In the case of `Fc1cccc(-c2ccnc3[nH]c(-c4n[nH]c5ccc(C6CCNCC6)cc45)nc23)c1` [Compound 1873, 7-(3-Fluorophenyl)-2-(5-(piperidin-4-yl)-1H-indazol-3-yl)-3H-imidazo[4,5-b]pyridine], it took 3270 nM to reach half-maximal inhibition in experiment [1] (IC50). In experiment [2], this compound yielded an EC50 of 0.037 nM.
For `Fc1cccc(-c2ccnc3[nH]c(-c4n[nH]c5ccc(C6=CCNCC6)cc45)nc23)c1` [Compound 1874, 7-(3-Fluorophenyl)-2-(5-(1,2,3,6-tetrahydropyridin-4-yl)-1H-indazol-3-yl)-3H-imidazo[4,5-b]pyridine], in that order: > 1000 nM and 0.317 nM.
In experiment [1], `Cn1cc(-c2ccc3[nH]nc(-c4nc5c(-c6cccc(F)c6)ccnc5[nH]4)c3c2)cn1` [Compound 1876, 7-(3-Fluorophenyl)-2-(5-(1-methyl-1H-pyrazol-4-yl)-1H-indazol-3-yl)-3H-imidazo[4,5-b]pyridine] displayed an IC50 of 61 nM. For the same compound, in experiment [2], the concentration for a half-maximal effect (EC50) is 9.99 nM.
For `Cc1ncc(-c2ccc3[nH]nc(-c4nc5c(-c6cccc(F)c6)ccnc5[nH]4)c3c2)n1C` [Compound 1877, 2-(5-(1,2-Dimethyl-1H-imidazol-5-yl)-1H-indazol-3-yl)-7-(3-fluorophenyl)-3H-imidazo[4,5-b]pyridine], the IC50 in experiment [1] was > 10000 nM. Besides, the 50% effective concentration (EC50) in experiment [2] was found to be 9.99 nM.
Regarding `NC1CN(c2cncc(-c3ccc4[nH]nc(-c5nc6c(-c7cccc(F)c7)ccnc6[nH]5)c4c3)n2)C1` [Compound 1878, 1-(6-(3-(7-(3-Fluorophenyl)-3H-imidazo[4,5-b]pyridin-2-yl)-1H-indazol-5-yl)pyrazin-2-yl)azetidin-3-amine], the IC50 in experiment [1] stood at 215 nM. Further, in experiment [2], the EC50 worked out at 9.99 nM.
Turning to `Fc1cccc(-c2ccnc3[nH]c(-c4n[nH]c5ccc(-c6cncc(OC7CCCCC7)c6)cc45)nc23)c1` [Compound 1879, 2-(5-(5-(Cyclohexyloxy)pyridin-3-yl)-1H-indazol-3-yl)-7-(3-fluorophenyl)-3H-imidazo[4,5-b]pyridine], in experiment [1], the IC50 was > 10000 nM. The same compound gave an EC50 in experiment [2] of 9.99 nM.
For `Fc1cccc(-c2ccnc3[nH]c(-c4n[nH]c5ccc(-c6cncc(OC7CCNCC7)c6)cc45)nc23)c1` [Compound 1880, 7-(3-Fluorophenyl)-2-(5-(5-(piperidin-4-yloxy)pyridin-3-yl)-1H-indazol-3-yl)-3H-imidazo[4,5-b]pyridine], in that order: 1190 nM and 0.417 nM.
`O=C(CC1CCNCC1)Nc1cncc(-c2ccc3[nH]nc(-c4nc5c(-c6cccc(F)c6)ccnc5[nH]4)c3c2)c1` [Compound 1881, N-(5-(3-(7-(3-Fluorophenyl)-3H-imidazo[4,5-b]pyridin-2-yl)-1H-indazol-5-yl)pyridin-3-yl)-2-(piperidin-4-yl)acetamide] returned a half-maximal inhibitory concentration (IC50) in experiment [1] of 65 nM. The compound also came in with a concentration giving a half-maximal response (EC50) in experiment [2] of 0.071 nM.
